In US8343943B2, “Cancer sensitizer comprising glucosamine, glucosamine derivatives or salts thereof” (National Cancer Center, priority 2006, dated 2013):

Columns and labels:
MCF 7 cells = assay: MTT cytotoxicity assay, anticancer agent-sensitive line; assay type: cell-based; conditions: MCF 7, sensitive to anticancer agent
Experimental: (§1) An MTT assay was conducted through […] analysis on the reduction of yellow tetrazolium salt into purple formazan in the mitochondria of viable cells. Cells were seeded at a population of 1×10^5 cells/well in 24-well plates. After incubation for 24 hrs, the cells were exposed to doxorubicin. This anticancer agent was administered at a dose of 90 μM to MCF 7/DOX and 5 μM to MDA 231. A control was not treated with doxorubicin. On the very day of analysis, the culture medium in each well was substituted with a fresh medium containing MTT (3-(4,5-dimethylthiazol-2-yl)-2,5-diphenyltetrazolium) (Sigma) at a concentration of 0.5 mg per ml, followed by incubation therein for an additional 4 hrs. After the removal of the medium, 500 μl of DMSO was added to each well and the formazan crystals were dissolved using an orbital shaker. Cell viability was represented as a percentage of a test group to the control. These experiments were done in triplicate and repeated at least three times. For each experiment, the mean of three independent experiments and the standard deviations are given.
(§2) As measured through an MTT assay, almost all MCF 7 and MDA 468, both sensitive to anticancer agent, died, whereas apoptosis took place in about 50% of the anticancer agent-resistant cell lines.

MDA 468 cells = assay: as above; assay type: cell-based; conditions: MDA 468, sensitive to anticancer agent
Experimental: as §1, §2

[1] = test system: MCF 7/DOX cells (doxorubicin resistant); assay: MTT cytotoxicity assay, doxorubicin with or without glucosamine; assay type: cell-based, human
Experimental: (§3) Human breast cancer cell line MDA-231 (doxorubicin resistant) was purchased from ATCC. MCF-7/DOX (doxorubicin resistant) was obtained from Dr. Kenneth H. Cowan (University of Nebraska Medical Center, 986805 Nebraska Medical Center, Omaha, Nebr. 68198-6805, USA). These cell lines were maintained in media supplemented with 10% fetal bovine serum (Gibco BRL), 1 mM sodium pyruvate (Gibco BRL), and 100 U/ml penicillin-streptomycin (Gibco BRL) at 37° C. in a humid 5% CO2 atmosphere and subcultured every two or three days.
as §1
(§4) MTT assay was conducted to examine whether glucosamine increases the sensitivity of breast cancer cells to anticancer agents. MCF 7/DOX and MDA 231 cell lines, both resistant to anticancer agents, were treated with doxorubicin and glucosamine (1.0 to 10 mM) for 24 hrs. Controls were not treated with glucosamine, while doxorubicin was administered at concentrations of 5 μM to MDA-MB 231, and at a concentration of 90 μM to MCF-7/DOX.

[2] = test system: MDA 231 cells (doxorubicin resistant); assay: as above; assay type: cell-based, human
Experimental: as §3, §1, §4

I-κBα in MDA231 cells = assay: Western blotting against I-κBα, cytoplasm fractions; assay type: cell-based, human; conditions: MDA-231; cultured 1 hr; cytoplasm fraction
Experimental: (§5) Glucosamine was analyzed for its effect on I-κBα degradation. For this, MCF7/DOX and MDA231 cells were cultured for 1 hr and cytoplasm fractions thereof were harvested for Western blotting against I-κBα. Western blotting results are shown in the upper panel of FIG. 3B. Western blotting was quantified using a densitometer, and the results are depicted in the lower panel of FIG. 3B. For each value, the mean of three independent experiments and standard deviations are given.

I-κBα in MCF7/DOX cells = assay: as above; assay type: cell-based, human; conditions: MCF-7/DOX; cultured 1 hr; cytoplasm fraction
Experimental: as §5

[3] = test system: NF-κB activity in MCF7/DOX cells; assay: pNF-κB-SEAP reporter assay; assay type: cell-based, human; conditions: MCF-7/DOX; glucosamine 5 mM; 24 hrs
Experimental: (§6) MCF7/DOX and MDA231 cell lines were cultured in media supplemented with 10% fetal bovine serum (Gibco BRL), 1 mM sodium pyruvate (Gibco BRL) and 100 U/ml penicillin-streptomycin (Gibco BRL) at 37° C. in a humid 5% CO2 atmosphere. A pNF-κB-SEAP vector was transfected into the cells. 24 hrs after transfection, the cells were cultured in the presence of or absence of glucosamine (represented by GM, 5 mM) for 24 hrs. The cell culture was subjected to an SEAP assay, and the cells, after being harvested, were subjected to a β-galactosidase assay. The values obtained for the SEAP assay were corrected for transfection efficiency with a pGAL plasmid (1 μg). β-Galactosidase activity was measured to correct the SEAP activity. The SEAP assay was conducted according to the procedure set forth by the manufacturer (BD Biosciences Clontech, Co.). […] These experiments were done in triplicate and repeated at least three times. The values of each experiment are the mean of three independent experiments and the standard deviations.

[4] = test system: NF-κB activity in MDA231 cells; assay: pNF-κB-SEAP reporter assay; assay type: cell-based, human; conditions: MDA-231; glucosamine 5 mM; 24 hrs
Experimental: as §6

Row | Structure (SMILES) | cell death (MCF 7 cells) | cell death (MDA 468 cells) | apoptosis of cells ([1]; MCF 7/DOX, doxorubicin 90 μM alone) | apoptosis of cells ([2]; MDA 231, doxorubicin 5 μM alone) | I-κBα level (I-κBα in MDA231 cells) | I-κBα level (I-κBα in MCF7/DOX cells) | sensitivity to doxorubicin when treated with glucosamine vs not treated ([1]; MCF 7/DOX, doxorubicin 90 μM, glucosamine 1.0 to 10 mM, 24 hrs) | apoptosis frequency, anticancer agent in combination with glucosamine vs alone ([1]; chemoresistant cells, FIG. 1 (MCF/DOX)) | sensitivity to doxorubicin when treated with glucosamine vs not treated ([2]; MDA 231, doxorubicin 5 μM, glucosamine 1.0 to 10 mM, 24 hrs) | apoptosis frequency, anticancer agent in combination with glucosamine vs alone ([2]; chemoresistant cells, FIG. 2 (MDA231)) | NF-κB activity [3] | NF-κB activity [4]
1 | COc1cccc2c1C(=O)c1c(O)c3c(c(O)c1C2=O)C[C@@](O)(C(=O)CO)C[C@@H]3O[C@H]1C[C@H](N)[C@H](O)[C@H](C)O1 [doxorubicin, reference compound] | almost all | almost all | about 50% | about 50% |  |  |  |  |  |  |  | 
2 | N[C@H]1C(O)O[C@H](CO)[C@@H](O)[C@@H]1O (stereo partly drawn) [glucosamine] |  |  |  |  | increase | increase | twice as (two times more=three times as) sensitive | twice as frequently | twice as (two times more=three times as) sensitive | twice as frequently | decrease | decrease
